Values of other authors, collected in article PMC9332635 (Journal of Food and Drug Analysis, 2017).

Columns and labels:
[1] = method validation study of isosteviol
[2] = tested on: HBsAg secretion in HBV-transfected cell-lines

Long-term stability [1] [days]	IC50 for inhibiting HBsAg secretion [2] [µg/mL]	Structure (SMILES)
61	–	C[C@@]12CC[C@@H]3[C@@](CC[C@H]4[C@@]3(C)CCC[C@@]4(C)C(=O)O)(CC1=O)C2 [isosteviol]
–	49.13	Nc1ccn([C@@H]2CS[C@H](CO)O2)c(=O)n1 [lamivudine]
